In US20260355165A1, “2,3,4,9-TETRAHYDRO-1H-PYRIDO[3,4-B]INDOLE DERIVATIVES AS ESTROGEN RECEPTOR MODULATORS FOR THE TREATMENT OF CANCER” (Olema Pharmaceuticals, Inc., priority 2022, published 2026):

The compounds below were run against T1, estrogen receptor (Homo sapiens, UniProt P03372) (assay: AP assay (alkaline phosphatase activity in ECC-1 cells), agonist mode (absence of E2) and antagonist mode (presence of 500 pM E2)). Settings: 3 days, AP activity normalized to 500 pM E2 alone, agonist and antagonist mode combined.
T1 construct: endogenous in cells; host or cells: ECC-1 cells
T1 sequence (P03372 1-595): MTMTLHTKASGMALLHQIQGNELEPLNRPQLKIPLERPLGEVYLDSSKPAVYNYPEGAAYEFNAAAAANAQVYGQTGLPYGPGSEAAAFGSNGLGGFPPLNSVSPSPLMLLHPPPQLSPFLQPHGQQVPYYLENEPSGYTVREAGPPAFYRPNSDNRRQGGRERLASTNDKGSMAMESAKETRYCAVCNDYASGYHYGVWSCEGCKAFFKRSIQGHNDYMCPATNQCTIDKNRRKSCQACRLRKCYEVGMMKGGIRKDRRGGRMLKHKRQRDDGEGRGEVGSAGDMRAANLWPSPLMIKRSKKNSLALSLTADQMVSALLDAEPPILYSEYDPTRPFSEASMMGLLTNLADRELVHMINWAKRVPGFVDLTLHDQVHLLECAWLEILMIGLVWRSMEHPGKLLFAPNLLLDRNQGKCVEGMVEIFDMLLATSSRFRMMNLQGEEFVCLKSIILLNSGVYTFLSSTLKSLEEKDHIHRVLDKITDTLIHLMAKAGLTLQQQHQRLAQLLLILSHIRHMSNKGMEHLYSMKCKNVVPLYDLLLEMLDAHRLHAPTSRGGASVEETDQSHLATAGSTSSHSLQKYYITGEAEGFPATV
Type: cell-based
Method in brief: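 ECC-1 cells in hormone-depleted medium treated with compounds for 3 days, without E2 (agonist mode) or with 500 pM E2 (antagonist mode). AP activity read at 405 nm after p-nitrophenyl phosphate substrate, 40 min at 42 °C. Signal normalized to 500 pM E2 alone.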

Structure (SMILES) | Activity (estrogen receptor modulation, e.g., agonism and antagonism)
C[C@@H]1Cc2c([nH]c3ccccc23)[C@@H](c2cc3[nH]c(C(=O)O)cc3s2)N1CC(C)(C)F.N [Compound I-65, ammonium; 2-[(1S,3R)-2-(2-fluoro-2-methyl-propyl)-3-methyl-1,3,4,9-tetrahydropyrido[3,4-b]indol-1-yl]-4H-thieno[3,2-b]pyrrole-5-carboxylate] | ++ (estrogen receptor antagonism having (i) between 10% and 80% increase in the E2-normalized signal in the AP assay (agonist mode) and (ii) between 10% and 80% reduction in the E2-normalized signal in the AP assay (antagonist mode))
CC1CN(Cc2cc3sc([C@@H]4c5[nH]c6ccccc6c5C[C@@H](C)N4CC(C)(C)F)cc3[nH]2)C1 [Compound I-66, 2-[(1S,3R)-2-(2-fluoro-2-methyl-propyl)-3-methyl-1,3,4,9-tetrahydropyrido[3,4-b]indol-1-yl]-5-[(3-methylazetidin-1-yl)methyl]-4H-thieno[3,2-b]pyrrole] | + (estrogen receptor agonism having (i) at least 80% increase in the E2-normalized signal in the AP assay (agonist mode) and (ii) no more than 80% reduction in the E2-normalized signal in the AP assay (antagonist mode))
C[C@@H]1Cc2c([nH]c3ccccc23)[C@@H](c2cc3[nH]c(CNCCCF)cc3s2)N1CC(C)(C)F [Compound I-67, 3-fluoro-N-[[2-[(1S,3R)-2-(2-fluoro-2-methyl-propyl)-3-methyl-1,3,4,9-tetrahydropyrido[3,4-b]indol-1-yl]-4H-thieno[3,2-b]pyrrol-5-yl]methyl]propan-1-amine] | + (estrogen receptor agonism having (i) at least 80% increase in the E2-normalized signal in the AP assay (agonist mode) and (ii) no more than 80% reduction in the E2-normalized signal in the AP assay (antagonist mode))
CC[C@H]1CCN(Cc2cc3sc([C@@H]4c5[nH]c6ccccc6c5C[C@@H](C)N4CC(C)(C)F)cc3[nH]2)C1 [Compound I-68, 5-[[(3S)-3-ethylpyrrolidin-1-yl]methyl]-2-[(1S,3R)-2-(2-fluoro-2-methyl-propyl)-3-methyl-1,3,4,9-tetrahydropyrido[3,4-b]indol-1-yl]-4H-thieno[3,2-b]pyrrole] | + (estrogen receptor agonism having (i) at least 80% increase in the E2-normalized signal in the AP assay (agonist mode) and (ii) no more than 80% reduction in the E2-normalized signal in the AP assay (antagonist mode))
C[C@@H]1Cc2c([nH]c3ccccc23)[C@@H](c2cnc3[nH]c(CN4CC(CF)C4)cc3c2)N1CC(C)(C)F [Compound I-69, (1R,3R)-1-[2-[[3-(fluoromethyl)azetidin-1-yl]methyl]-1H-pyrrolo[2,3-b]pyridin-5-yl]-2-(2-fluoro-2-methyl-propyl)-3-methyl-1,3,4,9-tetrahydropyrido[3,4-b]indole] | ++ (estrogen receptor antagonism having (i) between 10% and 80% increase in the E2-normalized signal in the AP assay (agonist mode) and (ii) between 10% and 80% reduction in the E2-normalized signal in the AP assay (antagonist mode))
C[C@@H]1Cc2c([nH]c3ccccc23)[C@@H](c2ccc3[nH]c(CN4CC(CF)C4)cc3n2)N1CC(C)(C)F [Compound I-70, (1S,3R)-1-[2-[[3-(fluoromethyl)azetidin-1-yl]methyl]-1H-pyrrolo[3,2-b]pyridin-5-yl]-2-(2-fluoro-2-methyl-propyl)-3-methyl-1,3,4,9-tetrahydropyrido[3,4-b]indole] | + (estrogen receptor agonism having (i) at least 80% increase in the E2-normalized signal in the AP assay (agonist mode) and (ii) no more than 80% reduction in the E2-normalized signal in the AP assay (antagonist mode))
CC1CN(Cc2nc3cc([C@@H]4c5[nH]c6ccccc6c5C[C@@H](C)N4CC(C)(C)F)ccc3[nH]2)C1 [Compound I-71, (1R,3R)-2-(2-fluoro-2-methyl-propyl)-3-methyl-1-[2-[(3-methylazetidin-1-yl)methyl]-3H-benzimidazol-5-yl]-1,3,4,9-tetrahydropyrido[3,4-b]indole] | ++ (estrogen receptor antagonism having (i) between 10% and 80% increase in the E2-normalized signal in the AP assay (agonist mode) and (ii) between 10% and 80% reduction in the E2-normalized signal in the AP assay (antagonist mode))
C[C@@H]1Cc2c([nH]c3ccccc23)[C@@H](c2ccc3nc(CN4CC(CF)C4)oc3c2)N1CC(C)(C)F [Compound I-72, 2-[[3-(fluoromethyl)azetidin-1-yl]methyl]-6-[(1R,3R)-2-(2-fluoro-2-methyl-propyl)-3-methyl-1,3,4,9-tetrahydropyrido[3,4-b]indol-1-yl]-1,3-benzoxazole] | + (estrogen receptor agonism having (i) at least 80% increase in the E2-normalized signal in the AP assay (agonist mode) and (ii) no more than 80% reduction in the E2-normalized signal in the AP assay (antagonist mode))
C[C@@H]1Cc2c([nH]c3ccccc23)[C@@H](c2ccc3nc(CN4CC(CF)C4)cn3c2)N1CC(C)(C)F [Compound I-73, (1R,3R)-1-[2-[[3-(fluoromethyl)azetidin-1-yl]methyl]imidazo[1,2-a]pyridin-6-yl]-2-(2-fluoro-2-methyl-propyl)-3-methyl-1,3,4,9-tetrahydropyrido[3,4-b]indole] | + (estrogen receptor agonism having (i) at least 80% increase in the E2-normalized signal in the AP assay (agonist mode) and (ii) no more than 80% reduction in the E2-normalized signal in the AP assay (antagonist mode))
C[C@@H]1Cc2c([nH]c3ccccc23)[C@@H](c2ccn3cc(CN4CC(CF)C4)nc3c2)N1CC(C)(C)F [Compound I-74, (1R,3R)-1-[2-[[3-(fluoromethyl)azetidin-1-yl]methyl]imidazo[1,2-a]pyridin-7-yl]-2-(2-fluoro-2-methyl-propyl)-3-methyl-1,3,4,9-tetrahydropyrido[3,4-b]indole] | +++ (estrogen receptor antagonism (i) with pIC50 greater than 7.5 and at least a 10% reduction in the E2-normalized signal in the AP assay (antagonist mode); and (ii) no more than 10% increase in E2-normalized signal in the AP assay (agonist mode))
C[C@@H]1Cc2c([nH]c3ccccc23)[C@@H](c2ccc3oc(CN4CC(CF)C4)nc3c2)N1CC(C)(C)F [Compound I-75, 2-[[3-(fluoromethyl)azetidin-1-yl]methyl]-5-[(1R,3R)-2-(2-fluoro-2-methyl-propyl)-3-methyl-1,3,4,9-tetrahydropyrido[3,4-b]indol-1-yl]-1,3-benzoxazole] | +++ (estrogen receptor antagonism (i) with pIC50 greater than 7.5 and at least a 10% reduction in the E2-normalized signal in the AP assay (antagonist mode); and (ii) no more than 10% increase in E2-normalized signal in the AP assay (agonist mode))
CC1CN(Cc2nc3cc([C@@H]4c5[nH]c6ccccc6c5C[C@@H](C)N4CC(C)(C)F)ccc3o2)C1 [Compound I-76, 5-[(1R,3R)-2-(2-fluoro-2-methyl-propyl)-3-methyl-1,3,4,9-tetrahydropyrido[3,4-b]indol-1-yl]-2-[(3-methylazetidin-1-yl)methyl]-1,3-benzoxazole] | +++ (estrogen receptor antagonism (i) with pIC50 greater than 7.5 and at least a 10% reduction in the E2-normalized signal in the AP assay (antagonist mode); and (ii) no more than 10% increase in E2-normalized signal in the AP assay (agonist mode))
C[C@@H]1Cc2c([nH]c3ccccc23)[C@@H](c2ccc3oc(CN4CC5(CCC5)C4)nc3c2)N1CC(C)(C)F [Compound I-77, 2-(2-azaspiro[3.3]heptan-2-ylmethyl)-5-[(1R,3R)-2-(2-fluoro-2-methyl-propyl)-3-methyl-1,3,4,9-tetrahydropyrido[3,4-b]indol-1-yl]-1,3-benzoxazole] | +++ (estrogen receptor antagonism (i) with pIC50 greater than 7.5 and at least a 10% reduction in the E2-normalized signal in the AP assay (antagonist mode); and (ii) no more than 10% increase in E2-normalized signal in the AP assay (agonist mode))
C[C@@H]1Cc2c([nH]c3ccccc23)[C@@H](c2cc3nc(CN4CC(CF)C4)oc3cc2F)N1CC(C)(C)F [Compound I-78, 6-fluoro-2-[[3-(fluoromethyl)azetidin-1-yl]methyl]-5-[(1R,3R)-2-(2-fluoro-2-methyl-propyl)-3-methyl-1,3,4,9-tetrahydropyrido[3,4-b]indol-1-yl]-1,3-benzoxazole] | + (estrogen receptor agonism having (i) at least 80% increase in the E2-normalized signal in the AP assay (agonist mode) and (ii) no more than 80% reduction in the E2-normalized signal in the AP assay (antagonist mode))
C[C@@H]1Cc2c([nH]c3ccccc23)[C@@H](c2cc(F)c3oc(CN4CC(CF)C4)nc3c2)N1CC(C)(C)F [Compound I-79, 7-fluoro-2-[[3-(fluoromethyl)azetidin-1-yl]methyl]-5-[(1R,3R)-2-(2-fluoro-2-methyl-propyl)-3-methyl-1,3,4,9-tetrahydropyrido[3,4-b]indol-1-yl]-1,3-benzoxazole] | + (estrogen receptor agonism having (i) at least 80% increase in the E2-normalized signal in the AP assay (agonist mode) and (ii) no more than 80% reduction in the E2-normalized signal in the AP assay (antagonist mode))
